Values after ≈ are worked out from the molar mass of the structure shown. Like-named read-outs stand apart in the source and are kept apart here.
Experiments:
Format in all cases: cell-based
[1] = system: Pseudomonas aeruginosa KW 799 WT; assay: Microdilution test (MIC); conditions: P. aeruginosa KW 799/WT
Description: (§1) The minimum inhibiting concentrations (MICs) were determined for the following bacterial strains: Pseudomonas aeruginosa NCTC 10701, NCTC 10662, SG 137, ATCC 27853, KW 799 WT and KW 799/61, E. coli DCO, DC2 and ATCC 25922, Serratia marcescens SG 621; Salmonella gallinarum ATCC 9184, Klebsiella pneumoniae ATCC 10031 and SG 117.
(§2) With the test germs KW 799/WT and /61 of Pseudomonas and DCO and DC2 of E. coli, the effect of improved penetration capacity on the efficacy of the substances was investigated.

E. coli DC0 = assay: Microdilution test (MIC); conditions: E. coli DC0
Description: as §1, §2

[2] = system: Pseudomonas aeruginosa KW 799/61; assay: Microdilution test (MIC)
Description: as §1, §2

[3] = system: Stenotrophomonas maltophilia GN 12873; assay: Microdilution test (MIC)
E. coli DC2 = assay: microbe, parasite or virus in culture
Description: as §1, §2

[4] = system: E. coli DC2 (penetration mutant); conditions: concentration 100 μg/ml
E. coli DC0 (wild type) = assay: Agar diffusion test; conditions: concentration 100 μg/ml
E. coli ATCC 25922 = assay: Microdilution test (MIC)
Description: as §1

[5] = system: Pseudomonas aeruginosa SG 137; assay: Microdilution test (MIC); conditions: P. aeruginosa SG 137
Description: as §1

[6] = system: Klebsiella pneumoniae ATCC 10031; assay: Microdilution test (MIC)
Description: as §1

[7] = system: Pseudomonas aeruginosa NCTC 10662; assay: Microdilution test (MIC); conditions: P. aeruginosa NCTC 10662
Description: as §1

[8] = system: Serratia marcescens SG 621; assay: Microdilution test (MIC)
Description: as §1

[9] = system: Pseudomonas aeruginosa KW 799 WT (wild type); assay: Agar diffusion test; conditions: concentration 100 μg/ml, P. aeruginosa KW799/WT
[10] = system: Salmonella gallinarum ATCC 9184; conditions: concentration 100 μg/ml, Salmonella galinarum ATCC 9184
[11] = system: Pseudomonas aeruginosa KW 799/61 (penetration mutant); conditions: P. aeruginosa KW799/61
[12] = system: Stenotrophomonas maltophilia GN 12873; assay: Agar diffusion test; conditions: concentration 100 μg/ml
[13] = system: Pseudomonas aeruginosa SG 137 (carbenicillin-resistant); assay: Agar diffusion test; conditions: concentration 100 μg/ml, P. aeruginosa SG 137
[14] = system: Klebsiella pneumoniae SG 117; assay: Agar diffusion test; conditions: concentration 100 μg/ml
[15] = system: Pseudomonas aeruginosa ATCC 27853; assay: Microdilution test (MIC); conditions: P. aeruginosa ATCC 27853
Description: as §1

[16] = system: Pseudomonas aeruginosa ATCC 27853 (wild type); assay: Agar diffusion test; conditions: concentration 100 μg/ml; P. aeruginosa ATCC 27853
[17] = system: Klebsiella pneumoniae ATCC 10031; assay: Agar diffusion test; conditions: concentration 100 μg/ml

Row | Compound | MIC values, microdilution test [1] | MIC values, microdilution test (E. coli DC0) | MIC values, microdilution test [2] | MIC values, microdilution test [5] | MIC values, microdilution test [6] | MIC values, microdilution test [8] | inhibition spot diameter in the agar diffusion test ([11]; concentration 100 μg/ml) | inhibition spot diameter in the agar diffusion test [4] | inhibition spot diameter in the agar diffusion test (E. coli DC0 (wild type)) | inhibition spot diameter in the agar diffusion test [9] | inhibition spot diameter in the agar diffusion test [10] | inhibition spot diameter in the agar diffusion test [12] | inhibition spot diameter in the agar diffusion test [13] | inhibition spot diameter in the agar diffusion test [14] | MIC values, microdilution test [3] | MIC values, microdilution test (E. coli ATCC 25922) | MIC values, microdilution test [15] | MIC values, microdilution test [7] | inhibition spot diameter in the agar diffusion test [16] | inhibition spot diameter in the agar diffusion test [17] | further results
1 | CC(=O)Oc1cccc(C(=O)NCCCC[C@H](NC(=O)c2cccc(OC(C)=O)c2OC(C)=O)C(=O)N[C@@H](C(=O)N[C@@H]2C(=O)N3[C@@H]2SC(C)(C)[C@@H]3C(=O)O)c2ccccc2)c1OC(C)=O [Substance 31, N-[L-2,6-bis-(2,3-diacetoxybenzoylamino)-hexanoyl]-ampicillin] | 0.78 µg/mL (≈ 0.85 µM) | 12.5 µg/mL (≈ 13.6 µM) | 0.2 µg/mL (≈ 0.218 µM) | 0.1 µg/mL (≈ 0.109 µM) | 0.4 µg/mL (≈ 0.436 µM) | 25 µg/mL (≈ 27.2 µM) | 37 mm | – | – | – | – | – | – | – | – | – | – | – | – | – | MIC values, microdilution test ([3]; listed as 31): 0.4 µg/mL (≈ 0.436 µM); MIC values, microdilution test (E. coli DC2): 0.2 µg/mL (≈ 0.218 µM); inhibition spot diameter in the agar diffusion test ([4]; listed as 31): 33 mm; inhibition spot diameter in the agar diffusion test (E. coli DC0 (wild type); listed as 31): 27 mm; MIC values, microdilution test (E. coli ATCC 25922; listed as 31): 0.78 µg/mL (≈ 0.85 µM); MIC values, microdilution test ([7]; listed as 31): 6.25 µg/mL (≈ 6.81 µM); inhibition spot diameter in the agar diffusion test ([9]; listed as 31): 27 mm; inhibition spot diameter in the agar diffusion test ([10]; listed as 31): 29 mm; inhibition spot diameter in the agar diffusion test ([12]; listed as 31): 23 mm; inhibition spot diameter in the agar diffusion test ([13]; listed as 31): 28 mm
2 | CC(=O)OC[C@H](NC(=O)c1cccc(OC(C)=O)c1OC(C)=O)C(=O)N[C@@H](C(=O)N[C@@H]1C(=O)N2[C@@H]1SC(C)(C)[C@@H]2C(=O)O)c1ccccc1 [Substance 32, N-[L-3-Acetoxy-2-(2,3-diacetoxybenzoylamino)-propionyl]-ampicillin] | 1.56 µg/mL (≈ 2.23 µM) | 12.5 µg/mL (≈ 17.9 µM) | 0.4 µg/mL (≈ 0.572 µM) | 1.56 µg/mL (≈ 2.23 µM) | – | 25 µg/mL (≈ 35.8 µM) | 32 mm | 28 mm | 22 mm | 25 mm | 28 mm | 19 mm | 16 mm | – | – | – | – | – | – | – | –
3 | CC(=O)Oc1cccc(C(=O)Nc2cc(NC(=O)c3cccc(OC(C)=O)c3OC(C)=O)cc(C(=O)N[C@@H](C(=O)N[C@@H]3C(=O)N4[C@@H]3SC(C)(C)[C@@H]4C(=O)O)c3ccccc3)c2)c1OC(C)=O [Substance 36, N-[3,5-bis-(2,3-diacetoxy-benzoylamino)-benzoyl]-ampicillin] | – | – | – | 0.4 µg/mL (≈ 0.433 µM) | – | – | 29 mm | 19 mm | 13 mm | 25 mm | 23 mm | 24 mm | 25 mm | 16 mm | 1.56 µg/mL (≈ 1.69 µM) | 25 µg/mL (≈ 27.1 µM) | 3.12 µg/mL (≈ 3.38 µM) | 6.25 µg/mL (≈ 6.76 µM) | 19 mm | 17 mm | –
4 | CC(=O)Oc1cccc(C(=O)NCCCC[C@H](NC(=O)c2cccc(OC(C)=O)c2OC(C)=O)C(=O)N[C@@H](C(=O)N[C@@H]2C(=O)N3[C@@H]2SC(C)(C)[C@@H]3C(=O)O)c2ccc(O)cc2)c1OC(C)=O [Substance Na-35, N-[L-2,6-bis-(2,3-diacetoxy-benzoylamino)-hexanoyl)-amoxicillin] | – | – | – | 0.1 µg/mL (≈ 0.107 µM) | – | – | – | 38 mm | 24 mm | 30 mm | 33 mm | 28 mm | 31 mm | 23 mm | 6.25 µg/mL (≈ 6.69 µM) | 0.2 µg/mL (≈ 0.214 µM) | 1.56 µg/mL (≈ 1.67 µM) | 1.58 µg/mL (≈ 1.69 µM) | 22 mm | 20 mm | inhibition spot diameter in the agar diffusion test ([11]; [ ] at 50 μg/ml): [38] mm
5 | COC(=O)Oc1cccc(C(=O)N(C)c2ccc(C(=O)N[C@@H](C(=O)N[C@@H]3C(=O)N4[C@@H]3SC(C)(C)[C@@H]4C(=O)O)c3ccccc3)cc2)c1OC(=O)OC [Substance Na-37, N-{4-[(2,3-di-methoxycarbonyloxy-benzoyl)-methyl-amino]-benzoyl}-ampicillin] | – | – | – | 0.4 µg/mL (≈ 0.544 µM) | 3.12 µg/mL (≈ 4.25 µM) | – | 35 mm | 33 mm | 27 mm | 28 mm | 29 mm | 16 mm | 22 mm | 19 mm | 6.25 µg/mL (≈ 8.51 µM) | 3.12 µg/mL (≈ 4.25 µM) | 3.12 µg/mL (≈ 4.25 µM) | 12.5 µg/mL (≈ 17 µM) | 21 mm | 22 mm | –
